This note sets out measurements from paper PMC3160846 (PLoS ONE, 2011).

Some results are limits rather than exact numbers.

The subject of test [1] is HONE-1 cells. The test is described as follows: Endo-replication (polyploidy), microscopy and flow cytometry, HONE-1. It is filed as cell-based, Human. The conditions noted are these: HONE-1, 48 h. The procedure:
Cell cycle progression was monitored using flow cytometry. After drug treatment, cells were trypsinized, washed with PBS and fixed in 80% ethanol at −20°C for 1 h. The fixed cells were stained with propidium iodide (containing RNase) at room temperature in the dark for 20 min. The DNA content was determined by a fluorescence-activated cell sorting IV flow cytometer (BD Biosciences, Franklin Lakes, NJ). For each analysis, 10,000 cells were counted and the percentage of cells in each phase was calculated using the ModFit LT software (Verity Software House, Topsham, ME). Experiments were repeated independently at least three times.
Background: A flow cytometer gives signals particle by particle.

A further test has as its system NTUB1 cells. The test is described as follows: Clonogenic assay, NTUB1. It is filed as cell-based, Human. Particulars: Homo sapiens; NTUB1, bladder, MDR1 negative (parental); read-out: IC50, anti-proliferative activity. How it is done:
(§1) Human lung adenocarcinoma A549 cells and NTUB1 bladder cancer cells were maintained in RPMI supplied with 10% fetal bovine serum. […] KB-derived MRP1-expressing cell line, KB-7D, was maintained in growth medium supplemented with 7 µM VP-16.
(§2) Two hundred cells in logarithmic growth phase were seeded in a 6-well plate. The cells were exposed to various concentrations of the test drugs for a three-generation period. At the end of the incubation period, cells were fixed and stained with 50% ethanol containing 0.5% methylene blue for 30 min. The plates were washed five times with water and allowed to air-dry. Colonies were countered manually. […] Each value represents the average of at least three independent experiments run in triplicates.

Another test deals with T1, CHK2 (Homo sapiens, UniProt O96017).
T1 construct: CHK2 (residues M1-L543) containing kinase domain; His; made in house; host or cells: Sf9 insect cells
T1 sequence (O96017 whole entry, the tested form may be a part): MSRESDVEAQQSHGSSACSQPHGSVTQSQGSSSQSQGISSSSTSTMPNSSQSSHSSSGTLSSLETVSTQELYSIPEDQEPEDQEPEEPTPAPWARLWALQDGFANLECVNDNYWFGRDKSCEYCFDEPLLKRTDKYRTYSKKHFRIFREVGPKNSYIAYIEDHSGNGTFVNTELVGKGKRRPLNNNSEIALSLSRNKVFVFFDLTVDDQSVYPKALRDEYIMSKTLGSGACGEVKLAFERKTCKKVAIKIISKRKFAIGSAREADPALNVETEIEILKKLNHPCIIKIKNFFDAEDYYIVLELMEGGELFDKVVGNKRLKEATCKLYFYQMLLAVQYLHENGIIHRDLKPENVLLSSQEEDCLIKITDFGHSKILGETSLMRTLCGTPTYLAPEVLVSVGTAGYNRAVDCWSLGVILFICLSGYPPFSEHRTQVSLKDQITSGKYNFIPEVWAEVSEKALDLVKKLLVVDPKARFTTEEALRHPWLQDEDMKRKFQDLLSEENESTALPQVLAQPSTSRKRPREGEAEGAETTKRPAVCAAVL
The experiment in a line: Kinase inhibition assay, CHK2. It is filed as biochemical. How it is done: (§3) CHK1/2 – The recombinant His-tagged CHK1 (residues M1-T476) or CHK2 (residues M1-L543) containing kinase domain were expressed in Sf9 insect cells. The kinase assay was carried out in 96-well plates with the tested compound at 30°C for 120 min.
(§4) Composition of the reaction buffers used in different kinase inhibitory assays is described in Figure S3.
(§5) 25 mM HEPES pH 7.4, 10mM MgCl2, 4mM MnCl2, 0.5mM Na3VO4, 2 mM DTT, 0.02% Triton X100, 0.01% BSA, 1 mM ATP, 2 mM CHK peptide ([…]), 50~500 ng recombinant CHK1 or CHK2.

In a further test the target is T2, CHK1 (Homo sapiens, UniProt O14757).
T2 construct: His-tagged CHK1 (residues M1-T476); His; made in house; host or cells: Sf9 insect cells
T2 sequence (O14757 whole entry, the tested form may be a part): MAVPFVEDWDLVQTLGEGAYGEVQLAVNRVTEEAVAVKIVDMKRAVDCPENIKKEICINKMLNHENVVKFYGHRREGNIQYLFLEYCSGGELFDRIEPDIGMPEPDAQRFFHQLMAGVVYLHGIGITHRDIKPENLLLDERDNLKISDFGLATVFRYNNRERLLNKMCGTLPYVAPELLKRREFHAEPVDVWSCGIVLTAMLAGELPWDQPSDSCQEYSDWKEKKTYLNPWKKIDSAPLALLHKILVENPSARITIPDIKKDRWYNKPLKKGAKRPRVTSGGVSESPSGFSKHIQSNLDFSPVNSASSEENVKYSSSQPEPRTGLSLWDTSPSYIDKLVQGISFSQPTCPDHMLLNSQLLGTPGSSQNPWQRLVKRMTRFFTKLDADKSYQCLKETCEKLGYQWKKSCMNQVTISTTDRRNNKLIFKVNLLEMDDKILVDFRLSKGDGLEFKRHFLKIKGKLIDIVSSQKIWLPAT
The experiment in a line: Kinase inhibition assay, CHK1. It is filed as biochemical. The procedure:
as §3, §4, §5

For another test, the target named is T3, VEGFR1 (Homo sapiens, UniProt P17948).
T3 construct: GST-tagged VEGFR1 (residues R781-I1338); GST; made in house; host or cells: Sf9 insect cells
T3 sequence (P17948 781-1338): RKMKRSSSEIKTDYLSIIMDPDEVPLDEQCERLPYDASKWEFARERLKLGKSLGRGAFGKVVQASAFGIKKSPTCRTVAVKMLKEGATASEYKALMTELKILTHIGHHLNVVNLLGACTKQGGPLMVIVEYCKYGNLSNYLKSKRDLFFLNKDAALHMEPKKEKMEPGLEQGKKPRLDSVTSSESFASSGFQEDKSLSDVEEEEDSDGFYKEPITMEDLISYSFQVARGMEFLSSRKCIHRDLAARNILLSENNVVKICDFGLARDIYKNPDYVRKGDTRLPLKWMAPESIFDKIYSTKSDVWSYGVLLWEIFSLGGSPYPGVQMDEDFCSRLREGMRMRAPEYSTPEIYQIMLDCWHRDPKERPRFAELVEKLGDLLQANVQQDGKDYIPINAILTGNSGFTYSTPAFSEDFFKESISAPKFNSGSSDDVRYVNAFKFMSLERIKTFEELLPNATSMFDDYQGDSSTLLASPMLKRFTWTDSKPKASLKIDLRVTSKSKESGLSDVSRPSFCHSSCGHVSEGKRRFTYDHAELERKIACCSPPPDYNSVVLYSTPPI
The experiment in a line: Kinase inhibition assay, VEGFR1. It counts as biochemical. How it is done: VEGFR1/2 – The recombinant GST-tagged VEGFR1 (residues R781-I1338) or VEGFR2 (residues V789-V1356) containing kinase domain were expressed in Sf9 insect cells. The kinase assay was carried out in 96-well plates with the tested compound at 30°C for 120 min.
as §4
25 mM HEPES pH 7.4, 10 mM MgCl2, 4mM MnCl2, 0.5mM Na3VO4, 2 mM DTT, 0.02% Triton X100, 0.01% BSA, 1 mM ATP, 2 mM polyGlu4:Tyr peptide, 50~100 ng recombinant VEGFR1 or VEGFR2.

The next test deals with T4, cMET (Homo sapiens, UniProt P08581).
T4 construct: GST-tagged c-Met (residues K956-S1390) containing kinase domain; GST; made in house; host or cells: Sf9 insect cells
T4 sequence (P08581 956-1390): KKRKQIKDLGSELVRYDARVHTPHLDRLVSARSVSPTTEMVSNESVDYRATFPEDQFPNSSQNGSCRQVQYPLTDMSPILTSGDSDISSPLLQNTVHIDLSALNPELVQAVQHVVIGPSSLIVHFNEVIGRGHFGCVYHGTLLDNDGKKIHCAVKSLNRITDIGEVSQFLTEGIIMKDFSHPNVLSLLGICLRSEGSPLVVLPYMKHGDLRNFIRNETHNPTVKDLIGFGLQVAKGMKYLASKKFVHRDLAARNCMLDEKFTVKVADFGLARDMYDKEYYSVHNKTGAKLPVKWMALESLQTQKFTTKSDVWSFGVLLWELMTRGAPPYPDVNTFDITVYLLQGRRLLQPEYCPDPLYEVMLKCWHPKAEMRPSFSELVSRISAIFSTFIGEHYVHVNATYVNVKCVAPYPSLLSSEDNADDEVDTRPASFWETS
The experiment in a line: Kinase inhibition assay, cMET. It counts as biochemical. The procedure:
c-Met – The recombinant GST-tagged c-Met (residues K956-S1390) containing kinase domain was expressed in Sf9 insect cells. The kinase assay was carried out in 96-well plates with the tested compound at 30°C for 120 min.
as §4
25 mM HEPES pH 7.4, 10mM MgCl2, 4 mM MnCl2, 0.5mM Na3VO4, 2 mM DTT, 0.02% Triton X100, 0.01% BSA, 1 mM ATP, 2 mM polyGlu4:Tyr peptide, 75 ng recombinant Met.

The test system of the next test is KB-S15 cells. The test is described as follows: Clonogenic assay, KB-S15. It is filed as cell-based, Human. The procedure: as §1, §2
Another test addresses T5, ALK (Homo sapiens, UniProt Q9UM73).
T5 construct: His-tagged ALK (residues V1058-P1620) containing kinase domain; His; made in house; host or cells: Sf9 insect cells
The test is described as follows: Kinase inhibition assay, ALK. It is filed as biochemical. How it is done:
ALK – The recombinant His-tagged ALK (residues V1058-P1620) containing kinase domain was expressed in Sf9 insect cells. The kinase assay was carried out in 96-well plates with the tested compound at 30°C for 120 min.
as §4
25 mM HEPES pH 7.4, 10 mM MgCl2, 4 mM MnCl2, 0.5 mM Na3VO4, 2 mM DTT, 0.02% Triton X100, 0.01% BSA, 1 μM ATP, 2 μM polyGlu4:Tyr peptide, 50~100 ng recombinant ALK.

A further test relates to OECM-1 cells. The test is described as follows: Clonogenic assay, OECM-1. It is filed as cell-based, Human. Particulars: Homo sapiens, OECM1; OECM-1, oral, p53 mutant, MDR1 negative; read-out: IC50, anti-proliferative activity. The procedure: as §1, §2
Test [2] concerns HONE-1 cells. The experiment in a line: Caspase-3/-7 activity imaging, HONE-1. It is filed as cell-based, Human. Particulars: HONE-1, 60 h. How it is done:
Caspase-3/-7 activity was analyzed with the MagicRed™ DEVD real-time caspase activity detection kit (catalog number #935, Immunochemistry Technologies LLC, Bloomington, MN). Briefly, cells were cultured in chamber-slides and incubated with test agents for various durations. Cells were then incubated with the Caspase-3/-7 substrate MR-(DEVD2) in culture medium for 1 hour, and then co-incubated with Hoechst 33342 for 15 min. Cells were viewed with a UV-enabled inverted-microscope at an excitation wavelength of 540 nm–560 nm and emission at 610 nm. Experiments were repeated independently at least two times.

T5 sequence (Q9UM73 1058-1620): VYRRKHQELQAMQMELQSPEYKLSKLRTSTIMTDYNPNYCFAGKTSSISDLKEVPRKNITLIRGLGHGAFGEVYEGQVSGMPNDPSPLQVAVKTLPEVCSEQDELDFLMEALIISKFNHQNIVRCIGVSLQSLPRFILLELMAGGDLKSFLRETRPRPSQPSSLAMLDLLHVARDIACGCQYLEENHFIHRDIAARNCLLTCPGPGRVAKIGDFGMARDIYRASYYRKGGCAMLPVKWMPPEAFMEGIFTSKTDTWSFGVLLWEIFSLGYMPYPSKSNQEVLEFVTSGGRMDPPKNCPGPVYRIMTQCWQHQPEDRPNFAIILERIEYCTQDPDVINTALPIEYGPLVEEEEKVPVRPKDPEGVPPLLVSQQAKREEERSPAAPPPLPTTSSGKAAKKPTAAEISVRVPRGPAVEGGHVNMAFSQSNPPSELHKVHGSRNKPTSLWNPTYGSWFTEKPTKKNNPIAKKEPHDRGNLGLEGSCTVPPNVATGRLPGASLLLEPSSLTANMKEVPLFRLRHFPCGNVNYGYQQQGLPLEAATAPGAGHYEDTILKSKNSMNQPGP

A word on the IC50: it is the concentration that inhibits the measured activity by half. As to `CN(C)Cc1ccccc1NC(=O)Nc1ccc(CCNc2ncnc3oc(-c4ccccc4)c(Cl)c23)cc1` [BPR1K653], the “formation of polyploidy (populations >4N)” value with HONE-1 cells [1] is “promoted the formation of polyploidy”. The IC50 is 0.008 ± 0.004 µM in the test on NTUB1 cells; 2.3 µM at CHK2; over 10 µM against CHK1; over 10 µM against VEGFR1; over 10 µM at cMET; 0.011 ± 0.004 µM in the test on KB-S15 cells (Homo sapiens, KB-S15, paclitaxol resistant, MDR1 ↑, read-out: IC50, anti-proliferative activity). In addition, the IC50 against ALK is over 10 µM; with OECM-1 cells, 0.135 ± 0.01 µM. The “Fold difference as compare to the IC50 in the respective parental cells” value in the test on KB-S15 cells (KB-S15 vs KB) came out at 1 fold. Besides, the “apoptosis, caspase-3/-7 activity” value in the test with HONE-1 cells [2] is recorded as “induced apoptosis”.
